Results as given in patent US6432963B1, “Pyrimidine-5-carboxamide derivatives” (Yamanouchi Pharmaceutical Co., Ltd., priority 1997, dated 2002).
Where a name gives a salt, the structure may show the parent alone.

molecular target: T1, Syk tyrosine kinase (Homo sapiens, UniProt P43405); assay: Syk tyrosine kinase inhibition test (SPA system); format: biochemical; conditions: His-tag fused human Syk, Band 3 peptide, [γ-33P]ATP, room temperature 1 hour; read-out: inhibition activity as IC50 value upon Syk tyrosine kinase
T1 construct: FLAG tag (8 amino acid residues) (C); made in house; host or cells: Sf-9 insect cells (baculovirus, pFASTBAC HT)

IC50, ≤ 100 nM:
NCCNc1ncc(C(N)=O)c(Nc2ccc3ccccc3c2)n1 [2-(2-aminoethylamino)-4-(2-naphthylamino)pyrimidine-5-carboxamide]
NC(=O)c1cnc(NC2CCCCC2N)nc1Nc1cc(Cl)cc(Cl)c1 (stereo not drawn) [2-(cis-2-aminohexylamino)-4-(3,5-dichloroanilino)pyrimidine-5-carboxamide dihydrochloride]
NCCNc1ncc(C(N)=O)c(Nc2cccc(C(F)(F)F)c2)n1 [2-(2-aminoethylamino)-4-(3-trifluoromethylanilino)pyrimidine-5-carboxamide]
NCCNc1ncc(C(N)=O)c(Nc2cccc([N+](=O)[O-])c2)n1 [2-(2-aminoethylamino)-4-(3-nitroanilino)pyrimidine-5-carboxamide]
